Experiment [1] concerns the target 72 kDa type IV collagenase (Homo sapiens, UniProt P08253).
The species named for another experiment is Homo sapiens. Description: Selectivity ratio of IC50 for recombinant human MMP12 to IC50 for recombinant human MMP2.
Another experiment concerns the target Collagenase 3 (Homo sapiens, UniProt P45452).
The target in experiment [2] is Macrophage metalloelastase (Homo sapiens, UniProt P39900).

Non-standard residues stand in square brackets, D forms with d. Residues, ends and D or L forms follow the SMILES beside them. *: point of attachment. Benzoyl(4-OPh(4-CONH2)) = NC(=O)c1ccc(Oc2ccc(C(=O)*)cc2)cc1; Benzenesulfonyl(4-OPh) = O=S(=O)(c1ccc(Oc2ccccc2)cc1)*; Benzenesulfonyl(4-Ph) = O=S(=O)(c1ccc(-c2ccccc2)cc1)*; X1 = O=C(CCCCS(=O)(=O)c1ccc(Oc2ccccc2)cc1)*; Benzoyl(4-OPh) = O=C(c1ccc(Oc2ccccc2)cc1)*; X2 = O=C(c1ccc(Oc2ccc(F)cc2)cc1)*; NMeI = CC[C@H](C)[C@H](NC)C(=O)O; NMeE = CN[C@@H](CCC(=O)O)C(=O)O; NMeL = CN[C@@H](CC(C)C)C(=O)O; NMeM = CN[C@@H](CCSC)C(=O)O; NMeV = CN[C@H](C(=O)O)C(C)C; β3hP = O=C(O)C[C@@H]1CCCN1; Orn = NCCC[C@H](N)C(=O)O; Dab = NCC[C@H](N)C(=O)O; Dap = NC[C@H](N)C(=O)O; Ahx = NCCCCCC(=O)O; Ava = NCCCCC(=O)O; GABA = NCCCC(=O)O; βAla = NCCC(=O)O

As a reminder, the IC50 is the point on the concentration scale where inhibition reaches its midpoint.

Chain of 72 kDa type IV collagenase (P08253 whole entry): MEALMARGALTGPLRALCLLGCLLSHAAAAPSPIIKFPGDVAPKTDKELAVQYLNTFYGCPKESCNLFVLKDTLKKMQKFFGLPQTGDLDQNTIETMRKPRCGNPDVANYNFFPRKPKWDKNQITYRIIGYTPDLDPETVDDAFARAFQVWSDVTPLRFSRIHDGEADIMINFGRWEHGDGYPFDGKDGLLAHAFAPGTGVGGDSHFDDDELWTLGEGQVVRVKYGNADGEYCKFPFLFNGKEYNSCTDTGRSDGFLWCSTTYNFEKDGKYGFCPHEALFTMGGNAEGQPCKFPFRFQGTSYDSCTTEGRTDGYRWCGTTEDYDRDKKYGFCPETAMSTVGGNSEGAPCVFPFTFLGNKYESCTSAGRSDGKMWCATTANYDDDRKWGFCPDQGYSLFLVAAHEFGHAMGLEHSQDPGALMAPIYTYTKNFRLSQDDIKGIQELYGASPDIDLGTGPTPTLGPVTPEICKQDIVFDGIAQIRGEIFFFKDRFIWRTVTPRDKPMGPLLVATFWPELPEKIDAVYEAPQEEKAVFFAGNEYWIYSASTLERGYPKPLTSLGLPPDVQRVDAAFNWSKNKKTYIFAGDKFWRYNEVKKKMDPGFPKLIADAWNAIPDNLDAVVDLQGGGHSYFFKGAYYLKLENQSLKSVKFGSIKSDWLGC
Chain of Macrophage metalloelastase (P39900 whole entry): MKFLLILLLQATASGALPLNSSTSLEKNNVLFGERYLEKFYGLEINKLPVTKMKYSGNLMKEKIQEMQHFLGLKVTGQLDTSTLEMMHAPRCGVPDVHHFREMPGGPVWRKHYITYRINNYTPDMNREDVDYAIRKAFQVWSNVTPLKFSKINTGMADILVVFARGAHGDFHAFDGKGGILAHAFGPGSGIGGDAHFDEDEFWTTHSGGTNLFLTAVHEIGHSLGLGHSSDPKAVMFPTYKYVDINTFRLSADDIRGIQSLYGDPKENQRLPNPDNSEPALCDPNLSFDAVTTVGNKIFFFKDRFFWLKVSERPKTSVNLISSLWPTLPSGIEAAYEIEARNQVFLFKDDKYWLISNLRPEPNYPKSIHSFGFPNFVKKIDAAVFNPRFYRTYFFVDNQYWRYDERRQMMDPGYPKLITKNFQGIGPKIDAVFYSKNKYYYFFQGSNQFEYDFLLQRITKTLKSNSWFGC

As to `CSCC[C@H](NC(=O)[C@H](CC(C)C)NC(=O)[C@H](C)NC(=O)[C@H](CC(=O)O)NC(=O)[C@H](CC(N)=O)NC(=O)CCCCS(=O)(=O)c1ccc(Oc2ccccc2)cc1)C(=O)N1CCC[C@H]1C(N)=O` (X1-NDALMP-NH2), the IC50 was found to be 0.089 nM in experiment [1] and 57 nM against Collagenase 3. Moreover, the Ratio IC50 in the experiment listed under Homo sapiens turned out to be 69.

For `CSCC[C@H](NC(=O)[C@H](CC(C)C)NC(=O)[C@H](C)NC(=O)[C@H](CC(=O)O)NC(=O)[C@H](CC(N)=O)NC(=O)CCCNS(=O)(=O)c1ccc(Oc2ccccc2)cc1)C(=O)N1CCC[C@H]1C(N)=O` ({Benzenesulfonyl(4-OPh)-GABA}-NDALMP-NH2), the IC50 in experiment [1] was found to be 0.083 nM; on Collagenase 3, 55 nM. For the same molecule, the Ratio IC50 in the experiment listed under Homo sapiens turned out to be 145.

On to `CC[C@H](C)[C@@H](C(=O)N1CCC[C@H]1C(N)=O)N(C)C(=O)[C@H](CC(C)C)NC(=O)[C@H](C)NC(=O)[C@H](CC(=O)O)NC(=O)[C@H](CC(N)=O)NC(=O)CCCNS(=O)(=O)c1ccc(Oc2ccccc2)cc1` ({Benzenesulfonyl(4-OPh)-GABA}-NDAL[NMeI]P-NH2), for which the IC50 stood at 0.097 nM in experiment [1] and 16 nM against Collagenase 3. The Ratio IC50 in the experiment filed under Homo sapiens was 186.

Take `CC(C)C[C@H](NC(=O)[C@H](C)NC(=O)[C@H](CC(=O)O)NC(=O)[C@H](CC(N)=O)NC(=O)CCCNS(=O)(=O)c1ccc(Oc2ccccc2)cc1)C(=O)N(C)[C@@H](CC(C)C)C(=O)N1CCC[C@H]1C(N)=O` ({Benzenesulfonyl(4-OPh)-GABA}-NDAL[NMeL]P-NH2): the concentration for half-maximal inhibition (IC50) in experiment [1] amounted to 0.066 nM; at Collagenase 3, 9.2 nM. Further, the Ratio IC50 in the experiment filed under Homo sapiens was 62.

On to `CC(C)C[C@H](NC(=O)[C@H](C)NC(=O)[C@H](CC(=O)O)NC(=O)[C@H](CC(N)=O)NC(=O)CCCNS(=O)(=O)c1ccc(Oc2ccccc2)cc1)C(=O)N(C)[C@@H](CC(C)C)C(=O)N1CCC[C@H]1CC(N)=O` ({Benzenesulfonyl(4-OPh)-GABA}-NDAL[NMeL][β3hP]-NH2), for which the IC50 in experiment [1] came out at 0.055 nM; against Collagenase 3 it was 15 nM. Also, in the experiment listed under Homo sapiens, the Ratio IC50 came to 24.

With `CSCC[C@@H](C(=O)N1CCC[C@H]1C(N)=O)N(C)C(=O)[C@H](CC(C)C)NC(=O)[C@H](C)NC(=O)[C@H](CC(=O)O)NC(=O)[C@H](CC(N)=O)NC(=O)CCCNS(=O)(=O)c1ccc(Oc2ccccc2)cc1` ({Benzenesulfonyl(4-OPh)-GABA}-NDAL[NMeM]P-NH2), the IC50 in experiment [1] is 0.128 nM; against Collagenase 3 it was 7 nM. The Ratio IC50 in the experiment listed under Homo sapiens is 57.

For `CSCC[C@@H](C(=O)N1CCC[C@H]1CC(N)=O)N(C)C(=O)[C@H](CC(C)C)NC(=O)[C@H](C)NC(=O)[C@H](CC(=O)O)NC(=O)[C@H](CC(N)=O)NC(=O)CCCNS(=O)(=O)c1ccc(Oc2ccccc2)cc1` ({Benzenesulfonyl(4-OPh)-GABA}-NDAL[NMeM][β3hP]-NH2), the IC50 is 0.044 nM in experiment [1] and 5.8 nM against Collagenase 3. In addition, the Ratio IC50 in the experiment filed under Homo sapiens was determined as 43.

Regarding `CC(C)C[C@H](NC(=O)[C@H](C)NC(=O)[C@H](CC(=O)O)NC(=O)[C@H](CC(N)=O)NC(=O)CCCNS(=O)(=O)c1ccc(Oc2ccccc2)cc1)C(=O)N(C)[C@H](C(=O)N1CCC[C@H]1C(N)=O)C(C)C` ({Benzenesulfonyl(4-OPh)-GABA}-NDAL[NMeV]P-NH2), the half-maximal inhibitory concentration (IC50) in experiment [1] is 0.078 nM; at Collagenase 3 it was 21 nM. Further, in the experiment filed under Homo sapiens, the Ratio IC50 is 282.

Regarding `CC(C)C[C@H](NC(=O)[C@H](C)NC(=O)[C@H](CC(=O)O)NC(=O)[C@H](CC(N)=O)NC(=O)CCCNS(=O)(=O)c1ccc(Oc2ccccc2)cc1)C(=O)N(C)[C@H](C(=O)N1CCC[C@H]1CC(N)=O)C(C)C` ({Benzenesulfonyl(4-OPh)-GABA}-NDAL[NMeV][β3hP]-NH2), the 50% inhibitory concentration (IC50) came out at 0.046 nM in experiment [1] and 25 nM against Collagenase 3. In addition, in the experiment listed under Homo sapiens, the Ratio IC50 was 122.

Take `CC[C@H](C)[C@@H](C(=O)N1CCC[C@H]1CC(N)=O)N(C)C(=O)[C@H](CC(C)C)NC(=O)[C@H](CCN)NC(=O)[C@H](CC(=O)O)NC(=O)[C@H](CC(N)=O)NC(=O)CCCNS(=O)(=O)c1ccc(Oc2ccccc2)cc1` ({Benzenesulfonyl(4-OPh)-GABA}-ND[Dab]L[NMeI][β3hP]-NH2): the IC50 in experiment [1] is 0.09 nM; against Collagenase 3 it was 443 nM. In the experiment listed under Homo sapiens, the Ratio IC50 amounted to 6010.

Take `CC[C@H](C)[C@@H](C(=O)N1CCC[C@H]1CC(N)=O)N(C)C(=O)[C@H](CC(C)C)NC(=O)[C@H](CN)NC(=O)[C@H](CC(=O)O)NC(=O)[C@H](CC(N)=O)NC(=O)CCCNS(=O)(=O)c1ccc(Oc2ccccc2)cc1` ({Benzenesulfonyl(4-OPh)-GABA}-ND[Dap]L[NMeI][β3hP]-NH2): the IC50 was found to be 0.13 nM in experiment [1] and 274 nM against Collagenase 3. The Ratio IC50 in the experiment listed under Homo sapiens was 977.

With `CC[C@H](C)[C@@H](C(=O)N1CCC[C@H]1CC(N)=O)N(C)C(=O)[C@H](CC(C)C)NC(=O)[C@H](CCCN)NC(=O)[C@H](CC(=O)O)NC(=O)[C@H](CC(N)=O)NC(=O)CCCNS(=O)(=O)c1ccc(Oc2ccccc2)cc1` ({Benzenesulfonyl(4-OPh)-GABA}-ND[Orn]L[NMeI][β3hP]-NH2), the figures for the IC50 (in experiment [1]; at Collagenase 3) were 0.61 nM and 134 nM, respectively. Also, the Ratio IC50 in the experiment filed under Homo sapiens came out at 189.

For `CSCC[C@H](NC(=O)[C@H](CC(C)C)NC(=O)[C@H](C)NC(=O)[C@H](CC(=O)O)NC(=O)[C@H](CC(N)=O)NC(=O)CCNS(=O)(=O)c1ccc(Oc2ccccc2)cc1)C(=O)N1CCC[C@H]1C(N)=O` ({Benzenesulfonyl(4-OPh)-βAla}-NDALMP-NH2), the 50% inhibitory concentration (IC50) is 0.49 nM in experiment [1] and 114 nM on Collagenase 3. Further, the Ratio IC50 in the experiment listed under Homo sapiens amounted to 51.

On to `CSCC[C@H](NC(=O)[C@H](CC(C)C)NC(=O)[C@H](C)NC(=O)[C@H](CC(=O)O)NC(=O)[C@H](CC(N)=O)NC(=O)CNS(=O)(=O)c1ccc(Oc2ccccc2)cc1)C(=O)N1CCC[C@H]1C(N)=O` ({Benzenesulfonyl(4-OPh)}-GNDALMP-NH2), for which the IC50 in experiment [1] amounted to 69 nM; in experiment [2], 916 nM; against Collagenase 3, 6470 nM. Also, in the experiment filed under Homo sapiens, the Ratio IC50 is 13.

For the molecule `CSCC[C@H](NC(=O)[C@H](CC(C)C)NC(=O)[C@H](C)NC(=O)[C@H](CC(=O)O)NC(=O)[C@H](CC(N)=O)NC(=O)CCCCNS(=O)(=O)c1ccc(-c2ccccc2)cc1)C(=O)N1CCC[C@H]1C(N)=O` ({Benzenesulfonyl(4-Ph)-Ava}-NDALMP-NH2), the results for the IC50 (in experiment [1]; against Collagenase 3) were 2.9 nM and 1710 nM, respectively. Besides, the Ratio IC50 in the experiment listed under Homo sapiens came out at 12.

On to `CSCC[C@H](NC(=O)[C@H](CC(C)C)NC(=O)[C@H](C)NC(=O)[C@H](CC(=O)O)NC(=O)[C@H](CC(N)=O)NC(=O)CCCNS(=O)(=O)c1ccc(-c2ccccc2)cc1)C(=O)N1CCC[C@H]1C(N)=O` ({Benzenesulfonyl(4-Ph)-GABA}-NDALMP-NH2), for which the values for the half-inhibitory concentration (IC50) (in experiment [1]; at Collagenase 3) were 9.2 nM and 1120 nM, respectively. Further, the Ratio IC50 in the experiment filed under Homo sapiens is 5.

In the case of `CSCC[C@H](NC(=O)[C@H](CC(C)C)NC(=O)[C@H](C)NC(=O)[C@H](CC(=O)O)NC(=O)[C@H](CC(N)=O)NC(=O)CCNS(=O)(=O)c1ccc(-c2ccccc2)cc1)C(=O)N1CCC[C@H]1C(N)=O` ({Benzenesulfonyl(4-Ph)-βAla}-NDALMP-NH2), the results for the IC50 (in experiment [1]; against Collagenase 3) were 6.3 nM and 1730 nM, respectively. In addition, the Ratio IC50 in the experiment filed under Homo sapiens was 18.

For `CSCC[C@H](NC(=O)[C@H](CC(C)C)NC(=O)[C@H](C)NC(=O)[C@H](CC(=O)O)NC(=O)[C@H](CC(N)=O)NC(=O)CNS(=O)(=O)c1ccc(-c2ccccc2)cc1)C(=O)N1CCC[C@H]1C(N)=O` ({Benzenesulfonyl(4-Ph)}-GNDALMP-NH2), the IC50 in experiment [1] was greater than 100 nM; in experiment [2], 4170 nM; against Collagenase 3, greater than 10000 nM.

For `CC(C)C[C@H](NC(=O)[C@H](CCN)NC(=O)[C@H](CC(=O)O)NC(=O)[C@H](CC(N)=O)NC(=O)CCCCCNC(=O)c1ccc(Oc2ccc(C(N)=O)cc2)cc1)C(=O)N(C)[C@@H](CCC(=O)O)C(=O)N1CCC[C@H]1CC(N)=O` ({Benzoyl(4-OPh(4-CONH2))-Ahx}-ND[Dab]L[NMeE][β3hP]-NH2), the figures for the half-inhibitory concentration (IC50) (in experiment [1]; against Collagenase 3) were 0.13 nM and 192 nM, respectively. Besides, the Ratio IC50 in the experiment filed under Homo sapiens came out at 15600.

With `CC(C)C[C@H](NC(=O)[C@H](CCN)NC(=O)[C@H](CC(=O)O)NC(=O)[C@H](CC(N)=O)NC(=O)CCCNC(=O)c1ccc(Oc2ccc(C(N)=O)cc2)cc1)C(=O)N(C)[C@@H](CCC(=O)O)C(=O)N1CCC[C@H]1CC(N)=O` ({Benzoyl(4-OPh(4-CONH2))-GABA}-ND[Dab]L[NMeE][β3hP]-NH2), the IC50 stood at 0.17 nM in experiment [1] and 540 nM against Collagenase 3. The Ratio IC50 in the experiment filed under Homo sapiens is 23100.

In the case of `CC(C)C[C@H](NC(=O)[C@H](CCN)NC(=O)[C@H](CC(=O)O)NC(=O)[C@H](CC(N)=O)NC(=O)CCNC(=O)c1ccc(Oc2ccc(C(N)=O)cc2)cc1)C(=O)N(C)[C@@H](CCC(=O)O)C(=O)N1CCC[C@H]1CC(N)=O` ({Benzoyl(4-OPh(4-CONH2))-βAla}-ND[Dab]L[NMeE][β3hP]-NH2), the IC50 in experiment [1] was 0.53 nM; on Collagenase 3, 146 nM. The Ratio IC50 in the experiment filed under Homo sapiens was 8390.

As for `CC(C)C[C@H](NC(=O)[C@H](CCN)NC(=O)[C@H](CC(=O)O)NC(=O)[C@H](CC(N)=O)NC(=O)CCCNC(=O)c1ccc(Oc2ccccc2)cc1)C(=O)N(C)[C@@H](CCC(=O)O)C(=O)N1CCC[C@H]1CC(N)=O` ({Benzoyl(4-OPh)-GABA}-ND[Dab]L[NMeE][β3hP]-NH2), in the experiment listed under Homo sapiens, the Ratio IC50 is 27200. The molecule also yielded an IC50 at Collagenase 3 of 2000 nM.

`CC(C)C[C@H](NC(=O)[C@H](CCN)NC(=O)[C@H](CC(=O)O)NC(=O)[C@H](CC(N)=O)NC(=O)CCCNC(=O)c1ccc(Oc2ccc(F)cc2)cc1)C(=O)N(C)[C@@H](CCC(=O)O)C(=O)N1CCC[C@H]1CC(N)=O` ({X2-GABA}-ND[Dab]L[NMeE][β3hP]-NH2): the values for the IC50 (in experiment [1]; on Collagenase 3) were 0.11 nM and 1290 nM, respectively. Further, the Ratio IC50 in the experiment listed under Homo sapiens was found to be 40700.
